From US20060002887A1, “Ionene oligomers and polymers” (Genzyme Corporation, priority 2002, published 2006)
Values after ≈ are worked out from the molar mass of the structure shown.

Tests used:
[1] = design: species or system pigs; conditions: pig, in vivo
Procedure: The non-substituted C8-containing compound TMDP-C8 (about 1-10 kDa) was tested at 10 mg/ml for its ability to reduce S. aureus infections introduced into dermal wounds in pigs.

[2] = system: A-549 lung epithelial cell line; experiment: Alamar Blue in vitro cytotoxicity; assay type: cell-based
Procedure: The oligomers were screened for in vitro cytotoxicity following 18-24 hr exposure using the metabolic indicator Alamar Blue™ (Alamar Biosciences, Sacramento, Calif.) against the A-549 lung epithelial cell line according to the manufacturer's instructions. Briefly, flat-bottom polystyrene microtiter plates were seeded with 2×10^4 cells in Ham's F-12 medium (Invitrogen) containing 10% fetal bovine serum (FBS) and were incubated ˜48 hr at 37° C., until cells were confluent. Medium was then aspirated off and replaced with medium lacking FBS. The oligomers were added to the first row (final concentration 5 mg/ml) and serial 2-fold dilutions were prepared across the plate. Plates were incubated 18-24 hr at 37° C.; medium containing test compounds was aspirated off, wells were washed once with PBS and fresh medium (lacking FBS and phenol red) was added. Alamar Blue™ was added (final concentration 30%); cells were incubated 4 hr and absorbance was read at 570 nm. The IC50 was then calculated.
(§1) Poly(trimethylene dipyridine-alt-5-oxanonane) having a molecular weight 0.5-1 kDa was tested in A-549 lung epithelial cells to determine its IC50 value in comparison with tobramycin, a conventional antibiotic. In addition, the minimum inhibitory concentrations for the two compounds were determined in vitro for a number of bacterial strains and species. The results are as shown below, where all concentrations are expressed as μg/mL: […]

P. aeruginosa = conditions: within 11 passages, published studies; cited from earlier work
MRSA = conditions: over 15 passages, published studies; cited from earlier work
Burkholderia cepacia = experiment: MIC broth dilution assay; assay type: cell-based; conditions: B. cepacia, read-out: minimum inhibitory concentration
Procedure: (§2) Both about 1-10 kDa fractions of poly(trimethylene dipyridine-alt-octane chloride) (TMDP-C8) and about 1.2 kDa poly(trimethylene dipyridine-alt-2,7-dihydroxyoctane chloride) (TMDP-C8(OH)2) have broad, though not identical antimicrobial activity.
as §1

Pseudomonas aeruginosa = experiment: MIC broth dilution assay; assay type: cell-based
Procedure: as §2, §1

[3] = system: Stenotrophomonas maltophilia; experiment: MIC broth dilution assay; assay type: cell-based; conditions: S. maltophilia, read-out: minimum inhibitory concentration
Procedure: as §2, §1

Staphylococcus aureus = experiment: MIC broth dilution assay; assay type: cell-based; conditions: S. aureus, read-out: minimum inhibitory concentration
Procedure: as §2, §1

**Q.** For “poly(trimethylene dipyridine-alt-octane chloride) [TMDP-C8]”, which “effect on wound healing” value [1] is on record?
**A.** did not inhibit or retard healing

**Q.** With “poly(trimethylene dipyridine-alt-octane) [TMDP-C8 1-3k]” as the molecule, how does the “IC50, In vitro Cytotoxicity of Compounds Tested in First Rat Lung Study” value [2] read?
**A.** 322 µg/mL

**Q.** Which “rise of MIC” value (P. aeruginosa) does the source give for gentamicin here?
**A.** 190 fold

**Q.** For `CCn1cc(C(=O)O)c(=O)c2cc(F)c(N3CCNCC3)cc21` [norfloxacin], which “rise of MIC” value (MRSA) is on record?
**A.** 85 fold

**Q.** What about the “rise of MIC” value (P. aeruginosa) of the same molecule?
**A.** 10 fold

**Q.** Which results are given for `NC[C@H]1O[C@H](O[C@H]2[C@H](O)[C@@H](O[C@H]3O[C@H](CO)[C@@H](O)[C@H](N)[C@H]3O)[C@H](N)C[C@@H]2N)[C@H](N)C[C@@H]1O` [Tobramycin, tobramycin]?
**A.** MIC (Burkholderia cepacia): > 50 µg/mL; minimum inhibitory concentration (Pseudomonas aeruginosa; P. aeruginosa PA01): 0.39 µg/mL (≈ 0.834 µM); MIC (Pseudomonas aeruginosa; Pseudomonas aeruginosa, P. aeruginosa G38, read-out: minimum inhibitory concentration): 0.39 µg/mL (≈ 0.834 µM); MIC [3]: 25 µg/mL (≈ 53.5 µM); MIC (Staphylococcus aureus): 0.195 µg/mL (≈ 0.417 µM); IC50 ([2]; Homo sapiens, A549, A-549 lung epithelial cells): 5000 µg/mL (≈ 10700 µM)

**Q.** For “poly(trimethylene dipyridine-alt-octane) [TMDP-C8 >1k]”, which “IC50, In vitro Cytotoxicity of Compounds Tested in First Rat Lung Study” value [2] is on record?
**A.** 30 µg/mL
